Assay results reported in US8835510B2, “Methods and compositions for treating conditions mediated by oxidative stress or electrophilic environmental toxins” (priority 2010, dated 2014).
Values joined by “and” are separate entries in the source; they are usually repeats but may differ in a detail not shown here. Equal entries are not always repeated. “Also recorded” adds a separate entry of the source.

What was measured:
CCl4-intoxicated rats = test: Protection from carbon tetrachloride-induced hepatotoxicity in rats; format: in vivo, rat; conditions: 2-ACP 200 mg/kg/d by gavage, six daily doses, then CCl4 30 μl ip; plasma 24 hours after
Method: (§1) This study was carried out in accordance with the NIH Guide for Care and Use of Laboratory Animals and approved by the Montefiore Medical Center Animal Care and Use Committee. Adult male rats (Sprague-Dawley, Taconic Farms, Germantown, N.Y., USA) were used in this study. Rats were housed individually in polycarbonate boxes, and drinking water and Purina Rodent Laboratory Chow (Purina Mills, Inc., St. Louis, Mo., USA) were available ad libitum.
(§2) Male rats (200-250 gm) were injected (i.p.) with 2-ACP at three different daily dose-rates: 100, 200 or 300 mg/kg/d×14 days. Rats were observed 3 times per week for signs of developing toxicity; i.e., body weight loss, general appearance, water/food consumption, gait performance and home cage behavior. […] As a model of in vivo oxidative stress, rats (200-250 gm) were administered 30 μl of carbon tetrachloride (CCl4) in corn oil (ip) following six daily doses of 2-ACP (200 mg/kg/d) by gavage. […] These findings indicate that 2-ACP decreased the degree of hepatic cell death caused by CCl4.

Aqueous solubility = format: physicochemical
[1] = Kinetic assay of acrolein-induced N-acetyl cysteine (NAC) sulfhydryl loss (DTNB method); conditions: for sulfhydryl (NAC) protection, pre-incubation: acrolein pre-incubated with test compound, NAC added one hour later; for rate of sulfhydryl loss (mean rate±SE): NAC + acrolein 150 μM + test compound 50 μM co-incubated, Krebs buffer pH 7.4, 30° C.; for rate of acrolein-induced sulfhydryl (NAC) loss (mean rate±95% confidence interval): pH 7.4; for ability to slow acrolein-induced NAC thiol loss: co-incubation, test compound 50 μM, pH 7.4 (FIG. 3A)
Excerpt: As an index of cytoprotection, these studies focused on the abilities of 1,3-dicarbonyl compounds to prevent electrophile-induced loss of protein and non-protein sulfhydryl groups. This experimental focus is based on substantial evidence that soft electrophiles, like acrolein, produce toxicity by forming Michael-type adducts with soft nucleophilic thiolate (anionic sulfhydryl) groups on functionally critical proteins^9, 17, 22, 56, 57 (reviewed in^28, 58, 62, 77, 94). […] To test this hypothesis, a determination was made of the ability of AcAc and other structurally related enol analogs to prevent sulfhydryl (nucleophile) adduction by acrolein (electrophile)^56. […] Free sulfhydryl concentrations were determined over time (up to 15 mins) by the DTNB method of LoPachin et al.^52.
Therefore, as a kinetic index of competitive thiol protection by enolate sequestration, the relative in vitro abilities of 1,3-dicarbonyl compounds and phloretin to slow the rate of acrolein-induced sulfhydryl loss were measured.

[2] = pKa and enolate ionization of enol compounds; format: physicochemical; conditions: for fraction in the anionic enolate state: pH 7.4 (neutral / cellular pH); for increase in enolate concentration: pH 9.0 relative to pH 7.4
[3] = test system: acrolein-exposed striatal synaptosomes; test: Protection against acrolein-induced thiol loss in striatal synaptosomes (DTNB); format: cell-based, rat; conditions: for cytoprotection / thiol protection in acrolein-exposed synaptosomes: pH 7.4, test compound 500 μM
Method: Therefore, as an investigation of possible cytoprotection, a determination was made of the relative abilities of the above 1,3-dicarbonyl structural series to prevent thiol loss in acrolein-exposed rat striatal synaptosomes (isolated CNS nerve terminals). Synaptosomes were prepared according to the methods of LoPachin et al.^52 and were exposed (Krebs buffer, pH 7.4, 30° C.×15 mins) to graded concentrations of acrolein (1-1000 μM) alone or in combination with a 1,3-dicarbonyl derivative or control compound (500 μM). […] The respective IC50s and 95% confidence intervals were calculated by the […] (Prism 3.0, GraphPad Software). The selected 1,3-dicarbonyls are carbanion nucleophiles and, therefore, the analyses also included NAC as a representative thiolate-type nucleophile. Studies were conducted to assess the in vitro toxicity of the selected enol derivatives (FIG. 4).
Studies were carried out using isolated brain nerve terminals (striatal synaptosomes) exposed to acrolein as a model of electrophile-induced toxicity, as illustrated in FIG. 5A-5B. Acrolein is a soft electrophile that inhibits protein function by forming adducts with soft nucleophilic cysteine residues and thereby causes synaptosomal toxicity.

MN9D cells [4] = test: Cell viability (trypan blue) in acrolein-exposed MN9D cultures; conditions: for concentration dependence of protection against acrolein: graded concentrations: 2-ACP 100-750 μM, AcAc 250-1000 μM (range-finding 50-1000 μM); for protection against acrolein-induced cell death (words): pre-incubation 60 minutes, 750 μM each (phloretin 100 μM); for increase in acrolein LC50: test compound 750 μM pre-incubation
Method: (§3) As a more complex biological model, a determination was made of the relative abilities of the 1,3-dicarbonyls to protect MN9D cells, a dopaminergic cell line, from acrolein- (FIG. 6) or hydrogen peroxide (H2O2)-induced cell death (FIG. 7). Briefly, two days after plating, cells were incubated with AcAc (750 μM) for one hr followed by exposure to graded concentrations of either acrolein (0.50-150 μM×24 hrs) or H2O2 (50-750 μM×24 hrs). Cell viability was determined by trypan blue (0.1%) exclusion. Living cells were counted in a hemocytometer and total cells per dish were calculated.

MN9D cells [5] = test: Cell viability (trypan blue) in H2O2-exposed MN9D cultures; conditions: for concentration dependence of protection against H2O2: graded concentrations: 2-ACP 250-750 μM, AcAc 500-1500 μM (range-finding 50-1000 μM); for protection against H2O2-induced cell death: test compound 750 μM (phloretin 100 μM); for protection against H2O2-induced cytotoxicity: FIG. 7
Method: as §3
This system represents a more complete model of oxidative stress since the hydroxyl radical formed from intracellular H2O2 during the Fenton reaction, subsequently mediates the generation of toxic aldehyde by-products such as acrolein and 4-hydroxy-2-nonenal (HNE).

[6] = test system: acrolein-exposed striatal synaptosomes; test: Protection against acrolein-induced inhibition of 3H-dopamine transport in striatal synaptosomes; format: cell-based, rat; conditions: for change in acrolein IC50 for inhibition of DA transport: test compound 500 μM, Krebs buffer pH 7.4, 30° C., 15 mins (FIG. 5A)
[7] = Ferrous ion chelation (method of Dairam et al.); conditions: for EC50: read-out: concentration at which 50% Fe^2+ chelation occurs
Male rats = test: 2-ACP toxicity in rats (14 day i.p. dosing); format: in vivo, rat; conditions: i.p. 100, 200 or 300 mg/kg/d×14 days
Method: as §1, §2

[8] = Free radical scavenging (DPPH absorbance method of Ak and Gulcin)
Method: The relative abilities of selected 1,3-dicarbonyl compounds to scavenge free radicals were determined using the spectrophotometric method of Ak and Gulcin (2008)^4 that measures changes in the absorbance of the 2,2-diphenyl-1-picrylhydrazyl radical.

whole animal = conditions: cited from earlier work
[9] = co-incubation with test compound 500 μM

SMILES | sulfhydryl (NAC) protection, pre-incubation [1] | pKa [2] | fraction in the anionic enolate state [2] | protection against acrolein-induced cell death (words) (MN9D cells [4]) | protection against H2O2-induced cell death (MN9D cells [5]) | rate of sulfhydryl loss (mean rate±SE) [1] | change in acrolein IC50 for inhibition of DA transport [6] | other results
CC(=O)C1CCCC1=O (stereo not drawn) [2-ACP, 2-acetylcyclopentanone] | completely preserved | 7.8 | ~50% | completely prevented cell death | nearly complete protection | – | – | reduction of plasma alanine transferase (ALT) relative to toxicant only (CCl4-intoxicated rats): 40%; reduction of plasma aspartate transferase (AST) relative to toxicant only (CCl4-intoxicated rats): 52%; water solubility (Aqueous solubility): water soluble; sulfhydryl (NAC) protection, co-incubation ([1]; all chemicals added simultaneously): complete sulfhydryl protection; increase in acrolein IC50 for synaptosomal thiol loss [3, 9]: 15 fold; concentration dependence of protection against acrolein (MN9D cells [4]): significant increases in the LC50; concentration dependence of protection against H2O2 (MN9D cells [5]): significant increases in the LC50 of H2O2; increase in acrolein IC50 for 3H-DA transport inhibition [6, 9]: 15 fold; EC50 [7]: 211 µM; overt signs of toxicity (body weight loss, appearance, water/food consumption, gait, home cage behavior) (Male rats): did not cause overt signs of toxicity; DPPH scavenging rate, fold slower than curcumin ([8]; relative to curcumin): 30-40 fold
CC(=O)CC(C)=O [AcAc, acetylacetone] | modestly effective | 8.9 | – | significantly increased the acrolein LC50 | modestly effective | −24.9±5 nmol SH sec^−1 | largest increases in the acrolein IC50 | rate of acrolein-induced sulfhydryl (NAC) loss (mean rate±95% confidence interval) [1]: -24.9 ± 3.6 nmol/s; rate of acrolein-induced sulfhydryl (NAC) loss ([1]; pH 9.0): -2.43 ± 2.2 nmol/s; thiol protection against acrolein at elevated pH ([1]; pH 9.0): substantially elevated; also recorded: completely protective; increase in enolate concentration [2]: ~100 fold; concentration dependence of protection against acrolein (MN9D cells [4]): concentration-dependent protection; also recorded: significant increases in the LC50; increase in acrolein LC50 (MN9D cells [4]): ~7 fold; protection against H2O2-induced cytotoxicity (MN9D cells [5]): 3 fold; concentration dependence of protection against H2O2 (MN9D cells [5]): concentration-dependent protection; also recorded: significant increases in the LC50 of H2O2; LD50 (whole animal): 175 mg/kg; EC50 [7]: 909 µM
O=C1CCC(=O)C1 [CPD, 1,3-cyclopentanedione] | modestly effective | – | – | completely prevented cell death | ineffective | – | – | –
CCOC(=O)CC(=O)OCC [DEM, diethyl malonate] | – | 12.9 | < 0.1% | neither DEM nor HD were effective | ineffective | – | Neither DEM nor HD significantly affected | increase in enolate concentration [2]: ~100 fold; cytoprotection / thiol protection in acrolein-exposed synaptosomes [3]: not cytoprotective
CC1(C)CC(=O)CC(=O)C1 [DMD, 5,5-Dimethyl-1,3-cyclohexanedione] | significant thiol protection | 5.3 | 99% | did not provide protection | – | −2.4±0.3 nmol SH sec^−1 | largest increases in the acrolein IC50 | cytoprotection / thiol protection in acrolein-exposed synaptosomes [3]: powerful cytoprotectant; protection against acrolein-induced cell death in serum-free medium (MN9D cells [4]): substantial increases in the acrolein LC50
O=C(O)CN(CCN(CC(=O)O)CC(=O)O)CC(=O)O [EDTA] | – | – | – | – | – | – | – | EC50 [7]: 31 µM
CC(=O)CCC(C)=O [HD, 2,5-hexanedione, reference compound] | did not affect the rate of acrolein-induced thiol loss | – | – | neither DEM nor HD were effective; also recorded: slight increase in LC50 | ineffective | – | Neither DEM nor HD significantly affected | ability to slow acrolein-induced NAC thiol loss [1]: not effective
CC(=O)C(C)C(C)=O [MPD, 3-methyl-2,4-pentanedione] | – | 10.8 | – | – | – | – | – | ability to slow acrolein-induced NAC thiol loss [1]: minimally protective
CC1(C)OC(=O)CC(=O)O1 [Meld. Acid, 2,2-dimethyl-1,3-dioxane-4,6-dione] | significant thiol protection | 4.8 | – | did not provide protection | – | – | largest increases in the acrolein IC50 | protection against acrolein-induced cell death in serum-free medium (MN9D cells [4]): substantial increases in the acrolein LC50
CC(=O)N[C@@H](CS)C(=O)O [NAC, N-acetyl cysteine, reference compound] | – | – | – | nearly complete protection; also recorded: completely prevented cell death | significantly less efficacious; also recorded: less protective | – | largest increases in the acrolein IC50 | Fe^2+ chelating activity [7]: little, if any, Fe^2+ chelating activity; DPPH radical scavenging [8]: modest free radical scavenging
CC(=O)CC(=O)C(F)(F)F [TFPD, 1,1,1,-trifluoro-2,4-pentanedione] | modestly effective | – | > 99% and 99% | significantly increased the acrolein LC50 | modestly effective | −52.1±5 nmol SH sec^−1 | more modest | thiol protection against acrolein at elevated pH ([1]; pH 9.0): none was observed; also recorded: did not increase; cytoprotection / thiol protection in acrolein-exposed synaptosomes [3]: some thiol protection; increase in acrolein LC50 (MN9D cells [4]): ~7 fold; protection against H2O2-induced cytotoxicity (MN9D cells [5]): 3 fold
C=CC=O [acrolein] | – | – | – | – | – | −78.4±7 nmol SH sec^−1 | – | rate of acrolein-induced sulfhydryl (NAC) loss (mean rate±95% confidence interval) [1]: -78.4 ± 6.2 nmol/s; IC50 ([3]; Rattus norvegicus, acrolein alone, 0.001-1 mM, read-out: IC50 of acrolein for loss of synaptosomal sulfhydryl groups): 74 µM; IC50 ([6]; Rattus norvegicus, acrolein alone, 0.001-1 mM, read-out: IC50 of acrolein for decrease in membrane 3H-DA transport): 66 µM
COc1cc(/C=C/C(=O)CC(=O)/C=C/c2ccc(O)c(OC)c2)ccc1O [curcumin, reference compound] | – | 8 | – | – | – | – | – | water solubility (Aqueous solubility): insolubility in aqueous solutions
